According to paper PMC8311653, “Design, Synthesis, In Vitro and In Vivo Characterization of Selective NKCC1 Inhibitors for the Treatment of Core Symptoms in Down Syndrome” (Journal of Medicinal Chemistry, 2021):

Legend:
[1] = In vitro mouse plasma stability; format: in vitro ADME; details: mouse plasma at 37 °C; incubated at 5 μM (final DMSO 0.1%); read-out: t1/2 plasma
[2] = In vitro metabolic stability in mouse liver microsomes; details: tissue homogenate, pH 7.4
Procedure, shortened: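 Compound incubated in mouse liver microsomes in 0.1M Tris-HCl pH 7.4 with 10% DMSO; after pre-incubation NADPH, G6P, G6PDH and MgCl2 added, then 37 °C for 1h, sampled at 0, 5, 15, 30, 60 min.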

NKCC1 = target: T1, NKCC1 (Mus musculus, UniProt P55012); assay: Ca2+ influx assay in immature primary neuronal cultures (indirect measure of NKCC1 inhibition); format: cell-based
T1 construct: primary neuronal cultures of dissociated hippocampal neurons were prepared from E18 C57BL/6J mice; endogenous in cells; host or cells: primary hippocampal neurons from E18 C57BL/6J mice, 3 DIV
T1 sequence (P55012 1-1205): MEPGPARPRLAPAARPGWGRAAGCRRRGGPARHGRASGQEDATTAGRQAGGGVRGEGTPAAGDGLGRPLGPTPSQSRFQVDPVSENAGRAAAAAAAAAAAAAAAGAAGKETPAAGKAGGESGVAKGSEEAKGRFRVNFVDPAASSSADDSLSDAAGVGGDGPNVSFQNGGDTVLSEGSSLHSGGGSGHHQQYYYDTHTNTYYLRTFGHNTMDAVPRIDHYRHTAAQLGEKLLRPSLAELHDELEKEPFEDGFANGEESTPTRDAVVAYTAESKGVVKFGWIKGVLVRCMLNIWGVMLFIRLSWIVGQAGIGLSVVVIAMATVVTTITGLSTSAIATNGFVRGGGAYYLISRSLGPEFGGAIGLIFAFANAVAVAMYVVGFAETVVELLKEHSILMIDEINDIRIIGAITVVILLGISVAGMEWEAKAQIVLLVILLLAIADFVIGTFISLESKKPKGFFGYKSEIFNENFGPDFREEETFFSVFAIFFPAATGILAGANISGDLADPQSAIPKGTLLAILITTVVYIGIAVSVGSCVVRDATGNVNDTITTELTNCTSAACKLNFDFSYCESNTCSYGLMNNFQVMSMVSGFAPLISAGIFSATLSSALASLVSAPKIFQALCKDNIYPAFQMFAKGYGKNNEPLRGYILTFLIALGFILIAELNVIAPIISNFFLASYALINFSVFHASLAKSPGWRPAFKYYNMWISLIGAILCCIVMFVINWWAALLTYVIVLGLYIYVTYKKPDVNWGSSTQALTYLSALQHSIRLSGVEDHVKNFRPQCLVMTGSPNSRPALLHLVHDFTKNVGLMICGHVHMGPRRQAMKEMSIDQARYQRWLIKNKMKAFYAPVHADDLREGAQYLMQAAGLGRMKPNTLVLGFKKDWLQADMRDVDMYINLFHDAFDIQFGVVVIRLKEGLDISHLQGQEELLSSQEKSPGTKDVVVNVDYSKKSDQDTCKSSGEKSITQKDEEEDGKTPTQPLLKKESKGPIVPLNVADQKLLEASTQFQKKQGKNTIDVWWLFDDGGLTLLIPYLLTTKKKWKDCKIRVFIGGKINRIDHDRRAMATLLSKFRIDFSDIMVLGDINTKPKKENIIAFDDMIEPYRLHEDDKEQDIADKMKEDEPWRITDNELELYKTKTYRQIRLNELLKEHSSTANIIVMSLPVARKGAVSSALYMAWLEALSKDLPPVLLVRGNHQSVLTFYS
Protocol: To perform the Ca^2+-influx assay, primary neuronal cultures of dissociated hippocampal neurons were prepared from E18 C57BL/6J mice (Charles River) as previously described[56] and plated in 96-well black-walled, clear-bottomed plates coated with poly-L-lysine (Sigma; 0.1 mg/mL in 100 mM borate buffer, pH 8.5) at a density of 30,000 cells per well. Neurons were maintained in neurobasal medium supplemented with 2% B-27 supplement, 0.5 mM glutamine, 50 U/mL of penicillin, and 50 μg/mL of streptomycin (all from Gibco). The cells were incubated at 37 °C and 5% CO2 until DIV 3 for the Ca^2+ influx assay.
At 3 DIVs, neurons were loaded with 2.5 μM of the Ca^2+-sensitive day Fluo4-AM (Invitrogen) in extracellular solution (145 mM NaCl, 5 mM KCl, 10 mM HEPES, 5.55 mM glucose, 1 mM MgCl2, and 2 mM CaCl2, pH 7.4). After 15 min, cells were washed twice with extracellular solutions and treated with bumetanide (as a positive control), DMSO (as a negative control), or each of our compounds at 10 μM or 100 μM, in extracellular solution for 15 min. Plates were then loaded onto a Spark (Tecan) multiplate reader equipped with an automatic liquid injector system, and Fluo4 fluorescence was recorded with excitation at 485 nm and emission at 535 nm. For each well, fluorescence was first recorded for 20 s of the baseline and for 20 s after delivery of GABA (100 μM). To evaluate neuronal viability, fluorescence was recorded for an additional 20 s after delivery of a depolarizing KCl stimulus (90 mM final concentration in wells). To represent the fluorescent traces in time, we normalized the fluorescence value for each time point to the average of the fluorescence value for the first 20 s of the baseline (ΔF/F0). To quantify the average effects as represented by the bar plots, we measured the maximum peak increase in ΔF/F0 fluorescence upon GABA application normalized over the maximum peak increase in ΔF/F0 fluorescence upon KCl application. We then presented in the figures all the data as a percentage of the fluorescence increase versus the value of the control DMSO.

[3] = Aqueous kinetic solubility in PBS pH 7.4; format: physicochemical; details: aqueous kinetic solubility from 10 mM DMSO solution in PBS pH 7.4, target concentration 250 μM (final DMSO 2.5%)
Protocol: 1. Aqueous kinetic solubility.
30 µL aliquots of 10 mM DMSO stock solution of the test compound were incubated in Phosphate
Buffered Saline (PBS) at pH 7.4 at 25°C for 24h. After centrifugation the dissolved compound in the
supernatant was quantified by LC-MS/MS.
Aqueous kinetic solubility was determined by UV quantification at
215 nm. […]

[4] = 100 μM, cultured neurons, 3 DIV
[5] = phosphate buffered saline (PBS)

Structure (SMILES)	half-life at 5 μM [1]	half-life at 5 μM [2]	inhibition at 10 µM (NKCC1; cultured neurons, 3 DIV)	inhibition at 100 µM (NKCC1; [4])	solubility at 24 h [3, 5]	Inhibition 100 μM Ca2+ influx (%) (NKCC1; [4])	inhibition of NKCC1 in the Ca2+ influx assay (dose dependence) (NKCC1; neuronal cultures, Figures 4A and S2)	solubility at 24 h [3]
CN(C)S(=O)(=O)c1cc(C(=O)O)ccc1NCCCCCCCC(F)(F)F [Compound 1, 3-(-N,N-Dimethylsulfamoyl)-4-(8,8,8-trifluorooctylamino)benzoic Acid]	> 2 h	> 1 h	45.7 ± 4.3%	92.8 ± 1.9%	> 250 µM			
CN(C)S(=O)(=O)c1cc(C(=O)O)c(O)cc1NCCCCCCCC(F)(F)F [Compound 40, 5-(N,N-Dimethylsulfamoyl)-2-hydroxy-4-((8,8,8-trifluorooctyl)amino)benzoic Acid]	> 2 h	> 1 h	13.9 ± 2%	51.8 ± 4%	> 250 µM	51.9 ± 4.0%	significant dose-dependent inhibition	
CCCCNc1cc(C(=O)O)cc(S(N)(=O)=O)c1Oc1ccccc1 [bumetanide, reference compound]		> 1 h	51.9 ± 2.3%	54.7 ± 2.5%				> 250 µM
